# Data reported in patent US20050203061A1, “Prodrug, medicinal utilization thereof and process for producing the same” (priority 2002, published 2005).
# Assays:
# [1] = test system: blood pressure and heart rate; experiment: Blood pressure and heart rate after generalized inhalation exposure; format: in vivo, Crj:CD(SD) rats; conditions: inhalation 10 min; for increase of the heart rate: after five minutes
# Experimental: The test was conducted by using Crj:CD(SD) rats with each group of 6 rats.
# Surgery was carried out under the anesthesia of a mixed gas of oxygen, nitrous oxide and isoflurane, and one end of a polyethylene tube (PE50, Becton Dickinson) filled with physiological saline containing heparin (100 U/mL) was inserted into a common carotid artery and indwelled, and the other end was passed through the neighborhood of the neck of the back of the animal and connected to a cannula (Instec Co.) installed at the upper portion of an exposure chamber. This cannula was connected to a pressure transducer (P23XL. Gould Electronics) through a polyethylene tube. Further, the periphery of the polyethylene tube from the back of the rat up to this cannula was passed through a metallic spring to prevent a damage to be caused by the rat.
# The administration of the drugs was conducted by preparing an exposure chamber and subjecting the rat with a cannula for measuring blood pressure in the indwelled state in the common cartoid artery to the generaliged inhalation exposure. This method is typically used in the generalized inhalation exposure.
# The signals from the pressure transducer (P23XL, Gould Electronics) were led to a pressure processor signal conditioner (Gould Electronics) and recorded on a thermal array recorder (RS3400, Gould Electronics). The blood pressure and the heart rate were continuously recorded from before the initiation of administration to 20 minutes after the completion of administration. The administration of the drugs was initiated when not less than one hour after waking passed and the measurement parameters were stabilized.
# Test substances were prepared in the same manner as in Example 1.
# The representative values of each group were shown by mean values [[…] (S.E.)]. With the mean values of each group, the test of significance was conducted by the Tukey's multiple test. Further, the significant standard was regarded as 5%.
# [2] = test system: airway pressure of guinea pig sensitized with ovalbumin; experiment: Antigen (ovalbumin) induced airway contraction, immediate type asthmatic model, Konzett and Rossler method; format: in vivo; conditions: for inhibition compared to the control group: 10 min
# [3] = test system: airway pressure of guinea pig sensitized with ovalbumin; experiment: as above; format: in vivo; conditions: for increase ratio of the airway pressure / increase in the airway pressure / inhibition compared to the control group: 10 min; for inhibition of the immediate type asthmatic reaction (airway contraction): inhalation administration, guinea pigs
# Experimental: In order to examine the bronchodilation effect of the glucuronides of salbutamol and isoprenaline of β2-agonists, an asthmatic model of a guinea pig sensitized with ovalumin was used. The test was conducted in accordance with the method of Konzett and Rossler (Arch. Exp. Pathol. Pharmakol., 195, 71-75, 1940).
# On day 1 and day 8 after the initiation of sensitization, 500 μg/0.5 mL of ovalbumin was intramuscularly administered to both legs of a guinea pig and 1.5×10^5 cells/mL/animal of pertussis vaccine was intraperitoneally administered to effect active sensitization. On day 15 after the initiation of sensitization, 10 and 100 μg/site of ovalbumin were intradermally administered to the back of the guinea pig, respectively, to check the state of sensitization. Only the animals which were found positive by the sensitization check 6 hours after the intradermal sensitization were used in the experiment.
# As the test substance, a drug solution was atomized by reducing the atomizing amount of an ultrasonic nebulizer to generate an aerosol, and the aerosol was then led into an exposure chamber (M.I.P.S. Co.), sucked at a rate of 3 L/min with the use of an air pump (SPP-3GA, Techno Takatsuki Co.) and administered to the guinea pig for 10 minutes by inhalation 40 minutes before the challenge of ovalbumin.
# On day 10 to 23 after the initiation of sensitization, the animals were anesthetized with sodium pentobarbital (50 mg/kg, i.p.), and cannulation was conducted into the trachea. Through the tracheal cannula the animals were connected to an artificial respirator and the change in the ventilation pressure under artificial respiration (a ventilation amount of 10 mL/kg, a ventilation frequency of 50 times/min) was recorded as the airway pressure through a differential pressure transducer (Validyne, Gould Electronics) connected to the tracheal cannula on a recorder (WT-645G, Nihon Koden Co., Ltd.). The airway pressure was measured up to 10 minutes after the administration of ovalbumin. Then, cannulation was conducted into the right and left common carotid veins. From the left cannulation, gallamine (10 mg/mL) in a volume of 1 mL/kg was intravenously administered ([…]) to confirm the disappearance of spontaneous respiration. Thereafter, ovalbumin was intravenously administered to induce an antigen-antibody reaction. The measuring points of the airway pressure were set at a time before induction, and at 1, 3, 5, 7, and 10 minutes after induction. The ratio of the increase in the airway pressure is represented by the percentage of the values obtained by subtracting the observed value before induction from the observed value at each measuring time after induction based on the maximum occlusion at each measuring time.
# As the test substances, salbutamol glucuronide and isoprenaline glucuronide were used. The salbutamol glucuronide is a white powder and the isoprenaline glucuronide is a brown crystal and both were stored at −80° C. under protection from light. As the control substances for comparison, each of sulbutamol chloride (hereinafter referred to as sulbutamol) and isoprenaline chloride (hereinafter referred to as isoprenaline) was used. The salbutamol and the isoprenaline are white powders and were stored at room temperature under protection from light. The test substances and the control substances for comparison were weighed in a necessary amount and dissolved in physiological saline (products of Otsuka Pharmaceutical Factory, Inc., Lot Nos. 1D78 and 1E84) to effect the preparation before using. The concentrations of the test substances and the control substances for comparison in solutions were rendered equivalent amounts by molar concentration. All solutions were nearly stable at room temperature for 24 hours.
# The obtained experimental results were shown by mean values and standard deviations with airway pressure. As to the test of significance, the Student's t test without any correspondence was conducted when two groups were compared. […]
# [4] = Blood analysis after oral administration (glucuronidation); format: in vivo, and monkeys; conditions: mice, rats, guinea pigs, dogs, monkeys (any species)
# Experimental: (§1) The smooth muscle contraction induced in the tracheal smooth muscle sample of a pig with a high concentration of KCl or carbachol is inhibited with an IC50 of about 5 μM. […] In mice, rats, guinea pigs, dogs, and monkeys, as the result of blood analysis after the administration, not less than 99% of the compound was the glucuronic conjugate in any of the animal species.
# [5] = test system: tracheal smooth muscle sample of a pig; experiment: In vitro inhibition of smooth muscle contraction induced with high concentration of KCl or carbachol; format: cell-based
# Experimental: as §1
# [6] = inhalation 0.072%, after three minutes
# [7] = 5 mg/L, during 30 minutes of measurement
# [8] = inhalation 0.157%, after three minutes
# [9] = 1 mg/L, during 30 minutes of measurement
# [10] = inhalation 0.1%, three minutes after antigen induction
structure (smiles),measurement,setting,value
"CC(C)(C)NCC(O)c1ccc(O)c(CO[C@@H]2OC(C(=O)O)[C@@H](O)C(O)C2O)c1 (stereo partly drawn) [salbutamol glucuronide, 3-O-(β-D-Glucuronyl)-salbutamol]",effect on blood pressure and heart rate,[1]; 7.2 mg/L,no effect was observed at all
same,inhibition compared to the control group,[2]; [6],about 56%
same,increase ratio of the airway pressure,[3]; [6],about 20%
same,inhibition of the immediate type asthmatic reaction (airway contraction),[3],significantly inhibit
CC(C)(C)NCC(O)c1ccc(O)c(CO)c1 (stereo not shown) [salbutamol],increase of the heart rate,[1]; 5 mg/L,about 36%
same,maximum blood pressure decrease ratio,[1]; [7],27%
same,maximum heart rate increase ratio,[1]; [7],39%
same,decrease of the blood pressure vs before inhalation (pre),"[1]; 5 mg/L, five minutes after completion of inhalation",about 26%
same,blood pressure,"[1]; salbutamol 5 mg/L, five minutes after completion of inhalation",75 mmHg
same,increase in the airway pressure,"[3]; inhalation 0.05%, 40 min before challenge, three minutes after antigen induction",about 3%
same,inhibition compared to the control group,"[3]; inhalation 0.05%, three minutes after antigen induction",about 92%
"CCC1Cc2c(O)cc(O)cc2Sc2ccccc21 (stereo not shown) [11-Ethyl-7,9-dihydroxy-10,11-dihydrobenzo[b,f]thiepin]",airway contraction inhibition,"[2]; oral administration, 10 mg/kg",showed the airway contraction inhibition
same,portion of the compound present as glucuronic conjugate in blood,[4],not less than 99%
same,IC50,[5],~5 µM
"CC(C)NCC(O)c1ccc(O[C@@H]2OC(C(=O)O)[C@@H](O)C(O)C2O)c(O)c1 (stereo partly drawn) [isoprenaline glucuronide, 4-O-(β-D-Glucuronyl)-isoprenaline]",effect on blood pressure and heart rate,[1]; 1.57 mg/L,no effect was recognized at all
same,increase ratio of the airway pressure,[3]; [8],about 10%
same,inhibition compared to the control group,[3]; [8],about 77%
same,inhibition of the immediate type asthmatic reaction (airway contraction),[3],significantly inhibit
CC(C)NCC(O)c1ccc(O)c(O)c1 (stereo not shown) [isoprenaline],increase of the heart rate,[1]; 1 mg/L,about 49%
same,maximum decrease of the blood pressure,[1]; [9],28%
same,maximum increase of the heart rate,[1]; [9],50%
same,decrease of the blood pressure vs before the treatment,"[1]; 1 mg/L, five minutes after completion of inhalation",about 27%
same,blood pressure,"[1]; isoprenaline 1 mg/L, five minutes after completion of inhalation",72 mmHg
same,inhibition compared to the control group,[2]; [10],about 73%
same,increase in the airway pressure,[3]; [10],about 12%
